± gives the expanded uncertainty stated by the source.
Experiments:
[1] = refractive index (Na D-line) (dimensionless); conditions: 298.15 K; 101.33 kPa; Liquid; Standard Abbe refractometry
[2] = Liquid; for mass density: 298.15 K, 101.33 kPa, Vibrating tube method; for vapor or sublimation pressure: Ebulliometric method (Recirculating still)

refractive index [1]	mass density [2] [kg/m3]	vapor or sublimation pressure ([2]; 330 K) [kPa]	vapor or sublimation pressure ([2]; 340 K) [kPa]	vapor or sublimation pressure ([2]; 330.04 K) [kPa]	vapor or sublimation pressure ([2]; 331.02 K) [kPa]	vapor or sublimation pressure ([2]; 337.07 K) [kPa]	vapor or sublimation pressure ([2]; 340.05 K) [kPa]	vapor or sublimation pressure ([2]; 340.57 K) [kPa]	vapor or sublimation pressure ([2]; 343.73 K) [kPa]	vapor or sublimation pressure ([2]; 347.76 K) [kPa]	vapor or sublimation pressure ([2]; 351.12 K) [kPa]	vapor or sublimation pressure ([2]; 365.8 K) [kPa]	vapor or sublimation pressure ([2]; 371.23 K) [kPa]	vapor or sublimation pressure ([2]; 373.22 K) [kPa]	vapor or sublimation pressure ([2]; 375.59 K) [kPa]	vapor or sublimation pressure ([2]; 378.26 K) [kPa]	vapor or sublimation pressure ([2]; 381.01 K) [kPa]	vapor or sublimation pressure ([2]; 382.94 K) [kPa]	vapor or sublimation pressure ([2]; 384.94 K) [kPa]	Compound
1.38894 ± 0.00072	687.79 ± 0.2	25.47 ± 0.16	36.64 ± 0.2																	CC(C)CC(C)(C)C [2,2,4-trimethylpentane]
1.3974 ± 0.0007	798.8 ± 0.21	8.87 ± 0.04	13.55 ± 0.06	8.87 ± 0.04	9.28 ± 0.04	12.02 ± 0.05	13.58 ± 0.06	13.89 ± 0.06	15.78 ± 0.06	18.48 ± 0.07	21.02 ± 0.08	35.36 ± 0.11	42.49 ± 0.14	45.36 ± 0.15	49 ± 0.16	53.37 ± 0.18	58.22 ± 0.19	61.82 ± 0.2	65.74 ± 0.21	CC(C)C(=O)C(C)C [2,4-dimethyl-3-pentanone]
1.37504 ± 0.00072	780.91 ± 0.16	33.25 ± 0.23	52.97 ± 0.29																	CC(C)O [propan-2-ol]
